Assay results: article PMC7795425, “Synthesis and Biological Activity of Brassinosteroid Analogues with a Nitrogen-Containing Side Chain” (International Journal of Molecular Sciences, 2020)

Columns and labels:
[1] = Calcein AM cytotoxicity assay, CEM; assay type: cell-based; conditions: human, CEM T-lymphoblastic leukemia cells, IC50 > 50 µM means inactive, read-out: Cytotoxic activity IC50
Method: (§1) The effect of the prepared BRs derivatives on the viability (in Calcein AM assays) of BJ human fibroblasts (as an example of a “normal” cell line) and human cancer cell lines of various histopathological origins, including: T-lymphoblastic leukemia CEM, breast carcinoma MCF7 and cervical carcinoma cell line HeLa, was also studied. Cells of all these lines were exposed to six 3-fold dilutions of each drug for 72 h prior to determination of cell survival. The IC50 (concentration leading to 50% inhibition of viability) values obtained from the Calcein AM cytotoxicity assay were calculated. […] All tested BR nitrogen-containing derivatives had no detectable activity, even when tested in concentrations of up to 50 µM.
(§2) The screening cell lines: T-lymphoblastic leukemia CEM; breast carcinoma MCF7 (estrogen-sensitive); cervical carcinoma cell line HeLa; and human foreskin fibroblasts BJ, were obtained from the American Type Culture Collection (Manassas, VA, USA). Cells were cultured in DMEM (Dulbecco’s Modified Eagle Medium, Sigma, St. Louis, MO, USA). Media used were supplemented with 10% fetal bovine serum, 2mM L-glutamine and 1% penicillin–streptomycin. The cell lines were maintained under standard cell culture conditions at 37 °C and 5% CO2 in a humid environment.
(§3) Cells were subcultured twice or three times a week using the standard trypsinization procedure. Cytotoxicity in cancer cell lines after 72 h was determined as described earlier. Control cultures were treated with DMSO alone, and the final concentration of DMSO in the mixture never exceeded 0.6%. Six serial 3-fold dilutions of the test substances were added at time zero in 20 μL aliquots to the microtiter plate wells and the highest final concentration in the wells was 50 μM.
(§4) Table S3: Cytotoxic activities, IC50 (µM/L)a, of compounds in three tumor and one normal fibroblast
(§5) Compound CEM MCF7 HeLa BJ
(§6) a The lowest concentration that kills 50% of cells.
(§7) b Increase of cell proliferation.

[2] = test system: Arabidopsis thaliana L. (Columbia ecotype, Col-0) seedlings; test: Arabidopsis root sensitivity bioassay; assay type: in vivo; conditions: for root length, mean: 7-day-old seedlings; for inhibitory effect on Arabidopsis root growth: tested 0.1 to 10 nM, selected derivatives also 100 nM
Method: Several bioassays such as the first bean internode, root growth and rice lamina inclination have been developed to evaluate the growth-promoting activity of BR derivatives. In this work, the activity of new BR analogues was evaluated using the Arabidopsis root sensitivity test because of its simplicity and high sensitivity for BRs.. The characteristic effect of exogenously applied BRs on light-grown Arabidopsis is dose-dependent—BRs in higher concentrations cause inhibition of root growth; vice versa, low concentrations are stimulating. The results obtained for 24-epiBL, which was used as a positive control, and the BR derivatives are shown in Figure 2, Figure 3 and Figure S21. […] A similar trend was shown for dimethylammonium hydrochloride 22a and morpholinium hydrochloride 22e with a long side chain. For numerical values of the average, SD and p-value, see Table S2.
The biological activity of the new BRs derivatives was tested by an Arabidopsis sensitivity bioassay which was performed according to [28]. Briefly, seedlings of Arabidopsis thaliana L. (Columbia ecotype, Col-0) were stratified for 2 days at 4 °C and germinated on vertical half-strength Murashige and Skoog (1% w/v sucrose) agar at 22 °C in a 16 h/8 h light–dark cycle. The plates contained concentrations of 24-epiBL (as positive control) and BR derivatives ranging from 0.1 to 10 nM, respectively 100 nM (for selected derivatives only). After 7 days, roots were straightened on solid media plates and scanned with an Epson high-resolution scanner. The entire root length was measured with ImageJ (http://rsbweb.nih.gov/ij/). For each treatment, more than 15 seedlings were analyzed in two biological repeats, and p-values were calculated with the two-tailed Student t-test using Excel software.
(§8) Figure 2 Effect of selected brassinosteroid derivatives on the inhibition of Arabidopsis root length. Seven-day-old Arabidopsis thaliana seedlings (Columbia ecotype, Col-0) were treated with DMSO as control/24epiBL/BR short side chain derivatives; (A)—amides, (B)—amines, (C)—ammonium hydrochlorides. For each treatment, more than 15 seedlings were analyzed in two biological repeats. Error bars represent SD. Asterisks represent significant changes (t-test); * represents p-value < 0.05, in comparison to control.
as §8, with “Figure 3” for “Figure 2”, “control/24epiBL/BR long” for “control/24epiBL/BR short”, “(A)—amides, (B)—ammonium” for “(A)—amides, (B)—amines, (C)—ammonium”
Table S2: Data for figure 2, 3, and S21. P value <0.05(t-test), comparison to control.
control (mean ± SD) 16.3 ± 1.21
*only selected compounds were tested
mean(mm) SD t-test mean (mm) SD t-test mean (mm) SD t-test mean (mm) SD t-test
(1 picture or pasted object on this page, not shown here)

[3] = Calcein AM cytotoxicity assay, HeLa; assay type: cell-based; conditions: human, HeLa cervical carcinoma cells, IC50 > 50 µM means inactive, read-out: Cytotoxic activity IC50
Method: as §1, §2, §3, §4, §5, §6, §7

[4] = Calcein AM cytotoxicity assay, MCF7; assay type: cell-based; conditions: human, MCF7 breast carcinoma cells (estrogen-sensitive), MCF7, 72 h, IC50 > 50 µM means inactive, read-out: Cytotoxic activity IC50
Method: as §1, §2, §3, §4, §5, §6, §7

[5] = Calcein AM cytotoxicity assay, BJ; assay type: cell-based; conditions: human, BJ foreskin fibroblasts (normal cell line), IC50 > 50 µM means inactive, read-out: Cytotoxic activity IC50
Method: as §1, §2, §3, §4, §5, §6, §7

[6] = 100 nM (only selected compounds), control 14.61 ± 0.85

| Compound | melting point | IC50 at 72 h [1] [µM] | root length, mean ([2]; 0.1 nM, control 16.3 ± 1.21) [mm] | root length, mean ([2]; 1 nM, control 16.3 ± 1.21) [mm] | root length, mean ([2]; 10 nM, control 16.3 ± 1.21) [mm] | IC50 at 72 h [3] [µM] | IC50 at 72 h [4] [µM] | IC50 at 72 h [5] [µM] | root length, mean [2, 6] [mm] | inhibitory effect on Arabidopsis root growth [2] |
| --- | --- | --- | --- | --- | --- | --- | --- | --- | --- | --- |
| C[C@H](CN1CCCC1)[C@H]1CC[C@H]2[C@@H]3CC(=O)[C@H]4C[C@H](O)[C@H](O)C[C@]4(C)[C@H]3CC[C@]12C [15c, (20S)-20-(pyrrolidin-1-ylmethyl)-2α,3α-dihydroxy-5α-pregnane-6-one] | > 240 °C (dec.) | > 50 | 16.78 | 14.37 | 17.21 | > 50 | > 50 | > 50 | – | – |
| C[C@H](CN1CCCCC1)[C@H]1CC[C@H]2[C@@H]3CC(=O)[C@H]4C[C@H](O)[C@H](O)C[C@]4(C)[C@H]3CC[C@]12C [15d, (20S)-20-(piperidin-1-ylmethyl)-2α,3α-dihydroxy-5α-pregnane-6-one] | > 210 °C (dec.) | > 50 | 14.18 | 14.11 | 15.15 | > 50 | > 50 | > 50 | – | – |
| C[C@H](CN1CCOCC1)[C@H]1CC[C@H]2[C@@H]3CC(=O)[C@H]4C[C@H](O)[C@H](O)C[C@]4(C)[C@H]3CC[C@]12C [15e, (20S)-20-(morpholin-4-ylmethyl)-2α,3α-dihydroxy-5α-pregnane-6-one] | > 210 °C (dec.) | > 50 | 17.21 | 17.61 | 16.21 | > 50 | > 50 | > 50 | 13.731 | – |
| C[C@H]([C@@H](O)[C@H](O)C(=O)N(C)C)[C@H]1CC[C@H]2[C@@H]3CC(=O)[C@H]4C[C@H](O)[C@H](O)C[C@]4(C)[C@H]3CC[C@]12C [20a, N,N-dimethyl-(20S,22R,23S)-2α,3α,22,23-tetrahydroxy-6-oxo-5α-cholan-24-amide] | > 210 °C (dec.) | > 50 | 16.13 | 14.67 | 14.18 | > 50 | > 50 | > 50 | 15.192 | weak inhibitory effect |
| CCN(CC)C(=O)[C@@H](O)[C@H](O)[C@@H](C)[C@H]1CC[C@H]2[C@@H]3CC(=O)[C@H]4C[C@H](O)[C@H](O)C[C@]4(C)[C@H]3CC[C@]12C [20b, N,N-diethyl-(20S,22R,23S)-2α,3α,22,23-tetrahydroxy-6-oxo-5α-cholan-24-amide] | > 160 °C (dec.) | > 50 | 16.78 | 15.32 | 14.99 | > 50 | > 50 | > 50 | – | – |
| C[C@H]([C@@H](O)[C@H](O)C(=O)N1CCCC1)[C@H]1CC[C@H]2[C@@H]3CC(=O)[C@H]4C[C@H](O)[C@H](O)C[C@]4(C)[C@H]3CC[C@]12C [20c, 1-((20S,22R,23S)-2α,3α,22,23-tetrahydroxy-6-oxo-5α-cholan-24-oyl)pyrrolidine] | > 200 °C (dec.) | > 50 | 15.97 | 15.81 | 15.15 | > 50 | > 50 | > 50 | 14.873 | weak inhibitory effect |
